Test results from patent publication US8344101B2, “Composition for improving brain function and method for improving brain function” (Calpis Co., Ltd., priority 2009, dated 2013).

Tested on: scopolamine-induced amnesia
Experiment: Y-shaped maze test of spontaneous alternation behavior in mice with scopolamine-induced amnesia
Assay type: in vivo
Settings: male ddY mice, scopolamine 1 mg/kg s.c. 30 minutes before test
Procedure: Male mice (n=15 to 30) of the ddY strain (approximately 7-week old) were used, and they took food and water ad lib. Test substances used were 150 nmol/kg weight (380 μg/kg weight) and 500 nmol/kg weight (1280 μg/kg weight) of […](SEQ ID NO: 2 ). The test substances were administered to the mice once orally […] the execution of a Y-shaped maze test for evaluation of spontaneous alternation behavior. Further, 30 minutes before the execution of the Y-shaped maze test, 1 mg/kg weight of scopolamine was subcutaneously administered on the backs of the mice in order to induce brain dysfunction (dysmnesia and/or cognitive impairment) in the mice. In the Y-shaped maze test, a Y-shaped maze was used as an experimental device, in which the length of each arm was 40 cm, the height of the wall was 12 cm, the width of the floor was 3 cm, and the width of the upper part was 10 cm, and three arms were connected to each other at an angle of 120 degrees. Each of the mice was placed at the tip of any one of the arms of the Y-shaped maze, and then let go to freely explore in the maze for 8 minutes. The sequence of the arms each of the mice entered was recorded. The number of entries by each of the mice for each of the anus during the measurement time was counted to be the total number of entries. In the sequence, the combination in which three different arms were selected in succession (for example, with the three arms respectively called A, B, and C, if the sequence of the arms entered is ABCBACACB, the count is 4 inclusive of overlapping) was investigated, and the number of the count was used as the number of spontaneous alternation behavior. The percentage of spontaneous alternation behavior was calculated by dividing the number of spontaneous alternation behavior by a number obtained by subtracting 2 from the total number of entries, and multiplying a resultant number by 100. The percentage of spontaneous alternation behavior was used as an indicator. […] The measured values were expressed in the form of mean ±standard error for each group. A significant difference between the control group and the scopolamine control group was calculated using Student's t-test. Further, a significant difference between the scopolamine control group and the […] (SEQ ID NO: 2 )-administered group was calculated using Student's t-test.
Male mice (n=15 to 30) of the ddY strain (approximately 7-week old) were used, and they took food and water ad lib. Test substances used here were: 500 nmol/kg weight (1280 μg/kg weight) of […](SEQ ID NO: 2 ); 500 nmol/kg weight (1140 μg/kg weight) of […](SEQ ID NO: 1 ) ([…]); 500 nmol/kg weight (1400 μg/kg weight) of […]([…]) (SEQ ID NO: 3 ); and 500 nmol/kg weight (1150 μg/kg weight) of Ser-Trp-Met-His-Gln-Pro-His-Gln-Pro-Leu-Pro-Pro-Thr-Val-Met-Phe-Pro-Pro-Gln (SWMHQPHQPLPPTVMFPPQ) (SEQ ID NO: 5). The test substances were administered to the mice once orally 60 minutes before the execution of a Y-shaped maze test for evaluation of spontaneous alternation behavior. Further, 30 minutes before the execution of the Y-shaped maze test, 1 mg/kg weight of scopolamine was subcutaneously administered on the backs of the mice in order to induce brain dysfunction (dysmnesia and/or cognitive impairment) in the mice. […] The arms each of the mice entered were sequentially recorded. The number of entries by each of the mice for each of the arms during the measurement time was counted to be the total number of entries. […]

[1] = Example 2, single oral dose 500 nmol/kg weight 60 minutes before Y-shaped maze test, FIG. 2

| Sequence | prophylactic activity against amnesia (percentage of spontaneous alternation behavior) [1] | prophylactic activity against amnesia (percentage of spontaneous alternation behavior) (Example 1, single oral dose ranging from 150 nmol/kg weight to 500 nmol/kg weight (380 to 1280 μg/kg weight), given 60 before Y-shaped maze test, FIG. 1) |
| --- | --- | --- |
| LQSWMHQPHQPLPPTVMFPPQSVL (Synthetic functional peptide) | had a prophylactic activity against amnesia | – |
| MHQPHQPLPPTVMFPPQSVL (Synthetic functional peptide) | had a prophylactic activity against amnesia | – |
| SWMHQPHQPLPPTVMFPPQ (Synthetic comparative example peptide) [Ser-Trp-Met-His-Gln-Pro-His-Gln-Pro-Leu-Pro-Pro-Thr-Val-Met-Phe-Pro-Pro-Gln, C-terminally truncated related peptide tested for comparison] | did not show any activity | – |
| SWMHQPHQPLPPTVMFPPQSVL (Synthetic functional peptide) | had a prophylactic activity against amnesia | had a prophylactic activity against amnesia |
